Data reported in patent US12378231B2, “Small molecules as monoacylglycerol lipase (MAGL) inhibitors, compositions and use thereof” (APOGEE PHARMACEUTICALS, INC., priority 2023, dated 2025).
Like-named read-outs stand apart in the source and are kept apart here.

Legend:
human recombinant MAGL = human recombinant MAGL (Homo sapiens (Human), UniProt Q99685); experiment: In vitro inhibition of human recombinant MAGL activity (Cayman inhibitor screening kit, 4-nitrophenylacetate hydrolysis); assay type: biochemical
Chain of human recombinant MAGL (Q99685 whole entry): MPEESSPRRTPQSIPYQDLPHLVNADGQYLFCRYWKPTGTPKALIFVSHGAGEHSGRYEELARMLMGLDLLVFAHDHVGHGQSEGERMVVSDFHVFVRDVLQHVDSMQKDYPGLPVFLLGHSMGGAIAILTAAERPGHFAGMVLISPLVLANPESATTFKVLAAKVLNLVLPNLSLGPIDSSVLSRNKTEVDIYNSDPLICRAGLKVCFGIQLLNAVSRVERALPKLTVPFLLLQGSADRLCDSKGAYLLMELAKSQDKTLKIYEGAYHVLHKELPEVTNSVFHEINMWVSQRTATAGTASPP
Source text: The inhibitory effect of the synthetic chemicals on activity of human recombinant MAGL was studied using commercial inhibitor screening kit (Cayman Chemical). […] The absorbance of the yellow product can be analyzed using the plate reader. […]

human recombinant FAAH = human recombinant FAAH (Homo sapiens (Human), UniProt O00519); experiment: In vitro inhibition of human recombinant FAAH activity (Cayman FAAH inhibitor screening kit, AMC arachidonoyl amide hydrolysis); assay type: biochemical
Chain of human recombinant FAAH (O00519 whole entry): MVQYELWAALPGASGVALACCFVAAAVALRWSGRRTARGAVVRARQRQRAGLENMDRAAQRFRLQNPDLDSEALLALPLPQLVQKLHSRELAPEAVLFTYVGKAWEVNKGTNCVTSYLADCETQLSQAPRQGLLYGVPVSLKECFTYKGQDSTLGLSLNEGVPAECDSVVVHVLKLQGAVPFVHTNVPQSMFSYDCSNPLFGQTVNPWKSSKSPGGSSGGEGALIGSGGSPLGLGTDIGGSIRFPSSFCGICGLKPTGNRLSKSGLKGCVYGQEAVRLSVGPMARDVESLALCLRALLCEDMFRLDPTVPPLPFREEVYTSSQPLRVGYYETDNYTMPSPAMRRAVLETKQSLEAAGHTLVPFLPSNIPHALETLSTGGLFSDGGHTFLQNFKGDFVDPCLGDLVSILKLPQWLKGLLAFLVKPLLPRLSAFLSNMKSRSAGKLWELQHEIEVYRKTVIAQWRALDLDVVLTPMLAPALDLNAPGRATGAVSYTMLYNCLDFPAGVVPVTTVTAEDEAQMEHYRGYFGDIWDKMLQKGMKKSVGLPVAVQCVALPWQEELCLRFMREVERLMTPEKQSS
Source text: In brief, FAAH hydrolyzes AMC arachidonoyl amide resulting in the release of the fluorescent product, while the inhibitor will inhibit the FAAH activity and thus reduce the fluorescent signal.

[1] = human recombinant MAGL, read-out: Inhibition on MAGL activity (IC50)

| Compound | IC50 (human recombinant FAAH) [nM] | IC50 (human recombinant MAGL; [1]) [nM] | IC50 (human recombinant MAGL) [nM] |
| --- | --- | --- | --- |
| O=C(On1nnc2ccccc21)N1CCN(C(c2ccc3c(c2)COCO3)c2ccc3c(c2)COCO3)CC1 [Example 27, 1H-benzo[d][1,2,3]triazol-1-yl 4-(bis(4H-benzo[d][1,3]dioxin-6-yl)methyl)piperazine-1-carboxylate] | > 10000 | – | 10 to 100 |
| O=C(Oc1c(F)c(F)c(F)c(F)c1F)N1CCN(C(c2ccc3c(c2)COCO3)c2ccc3c(c2)COCO3)CC1 [Example 29, pentafluorophenyl 4-(bis(4H-benzo[d][1,3]dioxin-6-yl)methyl)piperazine-1-carboxylate] | > 50000 | > 100 | – |
| CC(C)=NOC(=O)N1CCN(C(c2ccc3c(c2)COCO3)c2ccc3c(c2)COCO3)CC1 [Example 30, propan-2-one O-(4-(bis(4H-benzo[d][1,3]dioxin-6-yl)methyl)piperazine-1-carbonyl) oxime] | > 50000 | > 10000 | – |
| N#Cc1ncn(C(=O)N2CCN(C(c3ccc4c(c3)COCO4)c3ccc4c(c3)COCO4)CC2)n1 [Example 36, 1-(4-(bis(4H-benzo[d][1,3]dioxin-6-yl)methyl)piperazine-1-carbonyl)-1H-1,2,4-triazole-3-carbonitrile] | > 10000 | 10 to 100 | – |
| O=C(N1CCN(C(c2ccc3c(c2)COCO3)c2ccc3c(c2)COCO3)CC1)n1nnc2c(Cl)cc(C(F)(F)F)cc21 [Example 42, (4-(bis(4H-benzo[d][1,3]dioxin-6-yl)methyl)piperazin-1-yl)(4-chloro-6-(trifluoromethyl)-1H-benzo[d][1,2,3]triazol-1-yl)methanone] | > 20000 | 1 to 10 | – |
| O=C(N1CCN(C(c2ccc3c(c2)COCO3)c2ccc3c(c2)COCO3)CC1)n1nnc2cc3c(cc21)OCCO3 [Example 46, (4-(bis(4H-benzo[d][1,3]dioxin-6-yl)methyl)piperazin-1-yl)(6,7-dihydro-1H-[1,4]dioxino[2′,3′:4,5]benzo[1,2-d][1,2,3]triazol-1-yl)methanone] | > 10000 | 10 to 100 | – |
| N#Cc1ccc2nnn(C(=O)N3CCCN(C(c4ccc5c(c4)COCO5)c4ccc5c(c4)COCO5)CC3)c2c1 [Example 51, 1-(4-(bis(4H-benzo[d][1,3]dioxin-6-yl)methyl)-1,4-diazepane-1-carbonyl)-1H-benzo[d][1,2,3]triazole-6-carbonitrile] | > 10000 | 10 to 100 | – |
| O=C(C1CCN(C(c2ccc3c(c2)COCO3)c2ccc3c(c2)COCO3)CC1)n1nnc2ccccc21 [Example 52, (1H-benzo[d][1,2,3]triazol-1-yl)(1-(bis(4H-benzo[d][1,3]dioxin-6-yl)methyl)piperidin-4-yl)methanone] | > 50000 | > 100 | – |
| O=C(OC(C(F)(F)F)C(F)(F)F)C1CCN(C(c2ccc3c(c2)COCO3)c2ccc3c(c2)COCO3)CC1 [Example 53, 1,1,1,3,3,3-hexafluoropropan-2-yl 1-(bis(4H-benzo[d][1,3]dioxin-6-yl)methyl)piperidine-4-carboxylate] | > 50000 | > 100 | – |
| O=C(Oc1c(F)c(F)c(F)c(F)c1F)C1CCN(C(c2ccc3c(c2)COCO3)c2ccc3c(c2)COCO3)CC1 [Example 54, pentafluorophenyl 1-(bis(4H-benzo[d][1,3]dioxin-6-yl)methyl)piperidine-4-carboxylate] | > 50000 | > 100 | – |
| CN(CCOC(c1ccc2c(c1)COCO2)c1ccc2c(c1)COCO2)C(=O)n1nnc2ccc(C#N)cc21 [Example 55, N-(2-(bis(4H-benzo[d][1,3]dioxin-6-yl)methoxy)ethyl)-6-cyano-N-methyl-1H-benzo[d][1,2,3]triazole-1-carboxamide] | 1000 to 10000 | 1 to 10 | – |
| N#Cc1ccc2nnn(C(=O)N3CCC(OC(c4ccc5c(c4)COCO5)c4ccc5c(c4)COCO5)CC3)c2c1 [Example 56, 1-(4-(bis(4H-benzo[d][1,3]dioxin-6-yl)methoxy)piperidine-1-carbonyl)-1H-benzo[d][1,2,3]triazole-6-carbonitrile] | > 10000 | 1 to 10 | – |
| N#Cc1ccc2c(c1)nnn2C(=O)N1CCC(OC(c2ccc3c(c2)COCO3)c2ccc3c(c2)COCO3)CC1 [Example 57, 1-(4-(bis(4H-benzo[d][1,3]dioxin-6-yl)methoxy)piperidine-1-carbonyl)-1H-benzo[d][1,2,3]triazole-5-carbonitrile] | 100 to 1000 | 1 to 10 | – |
| N#Cc1ccc2nnn(C(=O)N3CC4(CC(OC(c5ccc6c(c5)COCO6)c5ccc6c(c5)COCO6)C4)C3)c2c1 [Example 59, 1-(6-(bis(4H-benzo[d][1,3]dioxin-6-yl)methoxy)-2-azaspiro[3.3]heptane-2-carbonyl)-1H-benzo[d][1,2,3]triazole-6-carbonitrile] | ~10000 | 10 to 100 | – |
| N#Cc1ccc2c(c1)nnn2C(=O)N1CC2(CC(OC(c3ccc4c(c3)COCO4)c3ccc4c(c3)COCO4)C2)C1 [Example 60, 1-(6-(bis(4H-benzo[d][1,3]dioxin-6-yl)methoxy)-2-azaspiro[3.3]heptane-2-carbonyl)-1H-benzo[d][1,2,3]triazole-5-carbonitrile] | < 10000 | 10 to 100 | – |
| N#Cc1ccc2nnn(C(=O)N3CCC(N(c4ccc(F)cc4)c4ccc(F)cc4)CC3)c2c1 [Example 61, 1-(4-(bis(4-fluorophenyl)amino)piperidine-1-carbonyl)-1H-benzo[d][1,2,3]triazole-6-carbonitrile] | 100 to 1000 | 1 to 10 | – |
| N#Cc1ccc2nnn(C(=O)N3CCC(N(c4ccc(F)cc4)c4ccc5c(c4)OCO5)CC3)c2c1 [Example 63, 1-(4-(benzo[d][1,3]dioxol-5-yl(4-fluorophenyl)amino)piperidine-1-carbonyl)-1H-benzo[d][1,2,3]triazole-6-carbonitrile] | 100 to 1000 | 1 to 10 | – |

Continued, in another order:

| IC50 (human recombinant FAAH) [nM] | IC50 (human recombinant MAGL; [1]) [nM] | Compound | IC50 (human recombinant MAGL) [nM] |
| --- | --- | --- | --- |
| > 20000 | 1 to 20 | Cc1ncn(C(=O)N2CCN(C(c3ccc4c(c3)COCO4)c3ccc4c(c3)COCO4)CC2)n1 [Example 28, (4-(bis(4H-benzo[d][1,3]dioxin-6-yl)methyl)piperazin-1-yl)(3-methyl-1H-1,2,4-triazol-1-yl)methanone] | – |
| > 50000 | > 100 | O=C(N1CCN(C(c2ccc3c(c2)COCO3)c2ccc3c(c2)COCO3)CC1)n1ncc2ccccc21 [Example 35, (4-(bis(4H-benzo[d][1,3]dioxin-6-yl)methyl)piperazin-1-yl)(1H-indazol-1-yl)methanone] | – |
| > 50000 | 1 to 10 | O=C(N1CCN(C(c2ccc3c(c2)COCO3)c2ccc3c(c2)COCO3)CC1)n1nnc2ccc(Br)cc21 [Example 37, (4-(bis(4H-benzo[d][1,3]dioxin-6-yl)methyl)piperazin-1-yl)(6-bromo-1H-benzo[d][1,2,3]triazol-1-yl)methanone] | – |
| > 50000 | 10 to 100 | O=C(N1CCN(C(c2ccc3c(c2)COCO3)c2ccc3c(c2)COCO3)CC1)n1nnc2cc(Br)ccc21 [Example 38, (4-(bis(4H-benzo[d][1,3]dioxin-6-yl)methyl)piperazin-1-yl)(5-bromo-1H-benzo[d][1,2,3]triazol-1-yl)methanone] | – |
| ~50000 | 1 to 10 | O=C(N1CCN(C(c2ccc3c(c2)COCO3)c2ccc3c(c2)COCO3)CC1)n1nnc2ccc(F)cc21 [Example 39, (4-(bis(4H-benzo[d][1,3]dioxin-6-yl)methyl)piperazin-1-yl)(6-fluoro-1H-benzo[d][1,2,3]triazol-1-yl)methanone] | – |
| 1000 to 20000 | 10 to 100 | O=C(N1CCN(C(c2ccc3c(c2)COCO3)c2ccc3c(c2)COCO3)CC1)n1nnc2cc(F)ccc21 [Example 40, (4-(bis(4H-benzo[d][1,3]dioxin-6-yl)methyl)piperazin-1-yl)(5-fluoro-1H-benzo[d][1,2,3]triazol-1-yl)methanone] | – |
| > 50000 | > 100 | O=C(Nc1cccnc1)N1CCN(C(c2ccc3c(c2)COCO3)c2ccc3c(c2)COCO3)CC1 [Example 43, 4-(bis(4H-benzo[d][1,3]dioxin-6-yl)methyl)-N-(pyridin-3-yl)piperazine-1-carboxamide] | – |
| > 10000 | 1 to 10 | O=C(N1CCN(C(c2ccc3c(c2)COCO3)c2ccc3c(c2)COCO3)CC1)n1nnc2ccc(C(F)(F)F)cc21 [Example 44, (4-(bis(4H-benzo[d][1,3]dioxin-6-yl)methyl)piperazin-1-yl)(6-(trifluoromethyl)-1H-benzo[d][1,2,3]triazol-1-yl)methanone] | – |
| > 1000 | 10 to 100 | O=C(N1CCN(C(c2ccc3c(c2)COCO3)c2ccc3c(c2)COCO3)CC1)n1nnc2cc(C(F)(F)F)ccc21 [Example 45, (4-(bis(4H-benzo[d][1,3]dioxin-6-yl)methyl)piperazin-1-yl)(5-(trifluoromethyl)-1H-benzo[d][1,2,3]triazol-1-yl)methanone] | – |
| > 20000 | 1 to 10 | N#Cc1ccc2nnn(C(=O)N3CCN(C(c4ccc5c(c4)COCO5)c4ccc5c(c4)COCO5)CC3)c2c1 [Example 48, 1-(4-(bis(4H-benzo[d][1,3]dioxin-6-yl)methyl)piperazine-1-carbonyl)-1H-benzo[d][1,2,3]triazole-6-carbonitrile] | – |
| > 20000 | 10 to 100 | N#Cc1ccc2c(c1)nnn2C(=O)N1CCN(C(c2ccc3c(c2)COCO3)c2ccc3c(c2)COCO3)CC1 [Example 49, 1-(4-(bis(4H-benzo[d][1,3]dioxin-6-yl)methyl)piperazine-1-carbonyl)-1H-benzo[d][1,2,3]triazole-5-carbonitrile] | – |
| > 50000 | > 100 | O=C(N1CCN(C(c2ccc3c(c2)COCO3)c2ccc3c(c2)COCO3)CC1)n1nc2ccccn2c1=O [Example 50, 2-(4-(bis(4H-benzo[d][1,3]dioxin-6-yl)methyl)piperazine-1-carbonyl)-[1,2,4]triazolo[4,3-a]pyridin-3(2H)-one] | – |
